The target of the experiment is T1, human ALX receptor (Homo sapiens, UniProt P25090).
T1 construct: expressed in transfected cells; host or cells: HEK293 (HEK293-hALXR-Gα16)
T1 sequence (P25090 1-351): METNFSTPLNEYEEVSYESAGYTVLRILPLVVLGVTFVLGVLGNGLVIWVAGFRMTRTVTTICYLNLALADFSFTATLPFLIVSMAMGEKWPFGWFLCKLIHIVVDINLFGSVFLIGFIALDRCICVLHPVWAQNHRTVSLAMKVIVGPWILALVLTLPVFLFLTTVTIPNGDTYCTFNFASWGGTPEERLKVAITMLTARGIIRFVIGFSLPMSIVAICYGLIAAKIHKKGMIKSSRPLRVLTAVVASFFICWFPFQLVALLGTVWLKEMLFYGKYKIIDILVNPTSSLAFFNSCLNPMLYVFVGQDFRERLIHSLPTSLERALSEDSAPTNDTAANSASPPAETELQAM
Put plainly: Intracellular calcium measurements (FLIPR) in HEK293-hALXR-Gα16 cells, agonistic activity. Type of experiment: cell-based. The following applies: values normalized to WKYMVm 10 nM. The procedure:
The ALX receptor and FPRL2 agonistic activities of the compounds of formula (I) are determined in accordance with the following experimental method.
Intracellular Calcium Measurements:
Cells expressing recombinant human ALX receptor and the G-protein Gα16 (HEK293-hALXR-Gα16) were grown to 80% confluency in Growing Medium (GM). Cells were detached from culture dishes with a cell dissociation buffer (Invitrogen, 13151-014), and collected by centrifugation at 1,000 rpm at rt for 5 min in Assay Buffer (AB) (equal parts of Hank's BSS (Gibco, 14065-049) and DMEM without Phenol Red (Gibco, 11880-028)). After 60 min incubation at 37° C. under 5% CO2 in AB supplemented with 1 μM Fluo-4 (AM) (Invitrogen, F14202), and 20 mM HEPES (Gibco, 15630-056), the cells were washed and resuspended in AB. They were then seeded onto 384-well FLIPR assay plates (Greiner, 781091) at 50,000 cells in 70 μl per well and sedimented by centrifugation at 1,000 rpm for 1 min. Stock solutions of test compounds were made up at a concentration of 10 mM in DMSO, and serially diluted in AB to concentrations required for activation dose response curves. WKYMVm (Phoenix Peptides) was used as a reference agonist. FLIPR384 or FLIPR Tetra instruments (Molecular Devices) were operated according to the manufacturer's standard instructions, adding 4 μl of test compound dissolved at 10 mM in DMSO and diluted prior to the experiment in assay buffer to obtain the desired final concentration. Changes in fluorescence were monitored before and after the addition of test compounds at lex=488 nm and lem=540 nm. Emission peak values above base level after compounds addition were exported after base line subtraction. Values were normalized to high-level control (WKYMVm compound, 10 nM final concentration) after subtraction of the base line value (AB addition).
On the technique in general: A change in cytosolic calcium serves as a functional read-out for many receptors and channels.

Counter-ions that a name gives are not always drawn.

One may read the EC50 as the concentration giving half of the maximal effect. As for `O=C(OCC[C@@H]1CCCCN1)[C@H]1[C@H](C(=O)Nc2ccc(Br)nc2)[C@@H]2CC[C@H]1C21CC1` [Example 11, (1S,2R,3R,4R)-[(S)-2-(Piperidin-2-yl)ethyl 2-((6-bromopyridin-3-yl)carbamoyl)spiro[bicyclo[2.2.1]heptane-7,1′-cyclopropane]-3-carboxylate]hydrochloride], the concentration giving a half-maximal response (EC50) turned out to be 8.8 nM.
For `O=C(OCC1CCCNC1)[C@H]1[C@H](C(=O)Nc2ccc(Br)nc2)[C@@H]2CC[C@H]1C21CC1` (stereo partly drawn) [Example 12, (1S,2R,3R,4R)-[Piperidin-3-ylmethyl 2-((6-bromopyridin-3-yl)carbamoyl)spiro[bicyclo[2.2.1]heptane-7,1′-cyclopropane]-3-carboxylate]hydrochloride], the EC50 was found to be 15.5 nM.
Take `O=C(O[C@@H]1CCNC1)[C@H]1[C@H](C(=O)Nc2ccc(Br)nc2)[C@@H]2CC[C@H]1C21CC1` [Example 13, (1S,2R,3R,4R)-[(R)-Pyrrolidin-3-yl 2-((6-bromopyridin-3-yl)carbamoyl)spiro[bicyclo[2.2.1]heptane-7,1′-cyclopropane]-3-carboxylate]hydrochloride]: the EC50 is 17.9 nM.
Take `CN1CCC(OC(=O)[C@H]2[C@H](C(=O)Nc3ccc(Br)nc3)[C@@H]3CC[C@H]2C32CC2)C1` (stereo partly drawn) [Example 14, (1S,2R,3R,4R)-[1-Methylpyrrolidin-3-yl 2-((6-bromopyridin-3-yl)carbamoyl)spiro[bicyclo[2.2.1]heptane-7,1′-cyclopropane]-3-carboxylate]]: the concentration giving a half-maximal response (EC50) amounted to 25.8 nM.
Regarding `Cc1cc(CNC(=O)[C@H]2[C@H](C(=O)OC3CCN(C)C3)[C@H]3CC[C@@H]2C32CC2)no1` (stereo partly drawn) [Example 15, (1S,2R,3R,4R)-[1-Methylpyrrolidin-3-yl 2-(((5-methylisoxazol-3-yl)methyl)carbamoyl)spiro[bicyclo[2.2.1]heptane-7,1′-cyclopropane]-3-carboxylate]], the EC50 amounted to 34.6 nM.
In the case of `Cc1cc(CNC(=O)[C@H]2[C@H](C(=O)OC3CCCNC3)[C@H]3CC[C@@H]2C32CC2)no1` (stereo partly drawn) [Example 16, (1S,2R,3R,4R)-[Piperidin-3-yl 2-(((5-methylisoxazol-3-yl)methyl)carbamoyl)spiro[bicyclo[2.2.1]heptane-7,1′-cyclopropane]-3-carboxylate]hydrochloride], the EC50 is 53.7 nM.
On to `Cc1cc(CNC(=O)[C@H]2[C@H](C(=O)OCCC3CCCNC3)[C@H]3CC[C@@H]2C32CC2)no1` (stereo partly drawn) [Example 17, (1S,2R,3R,4R)-[2-(Piperidin-3-yl)ethyl 2-(((5-methylisoxazol-3-yl)methyl)carbamoyl)spiro[bicyclo[2.2.1]heptane-7,1′-cyclopropane]-3-carboxylate]hydrochloride], for which the concentration for a half-maximal effect (EC50) was found to be 79.4 nM.
In the case of `Cc1cc(CNC(=O)[C@H]2[C@H](C(=O)OCC3CCCNC3)[C@H]3CC[C@@H]2C32CC2)no1` (stereo partly drawn) [Example 18, (1S,2R,3R,4R)-[Piperidin-3-ylmethyl 2-(((5-methylisoxazol-3-yl)methyl)carbamoyl)spiro[bicyclo[2.2.1]heptane-7,1′-cyclopropane]-3-carboxylate]hydrochloride], the EC50 is 87.7 nM.
In the case of `Cc1cc(CNC(=O)[C@H]2[C@H](C(=O)O[C@@H]3CCNC3)[C@H]3CC[C@@H]2C32CC2)no1` [Example 19, (1S,2R,3R,4R)-[(R)-Pyrrolidin-3-yl 2-(((5-methylisoxazol-3-yl)methyl)carbamoyl)spiro[bicyclo[2.2.1]heptane-7,1′-cyclopropane]-3-carboxylate]hydrochloride] it was 105 nM; in that of `Cc1cc(CNC(=O)[C@H]2[C@H](C(=O)OCC[C@@H]3CCCCN3)[C@H]3CC[C@@H]2C32CC2)no1` [Example 20, (1S,2R,3R,4R)-[(S)-2-(Piperidin-2-yl)ethyl 2-(((5-methylisoxazol-3-yl)methyl)carbamoyl)spiro[bicyclo[2.2.1]heptane-7,1′-cyclopropane]-3-carboxylate]hydrochloride], 118 nM; in that of `CN(C)CCCOC(=O)[C@H]1[C@H](C(=O)Nc2ccc(Br)nc2)[C@@H]2CC[C@H]1C21CC1` [Example 21, (1S,2R,3R,4R)-[1-Dimethylaminoprop-3-yl 2-((6-bromopyridin-3-yl)carbamoyl)spiro[bicyclo[2.2.1]heptane-7,1′-cyclopropane]-3-carboxylate]], 146 nM.
`CN1CCCCC1COC(=O)[C@H]1[C@H](C(=O)Nc2ccc(Br)nc2)[C@@H]2CC[C@H]1C21CC1` (stereo partly drawn) [Example 22, (1S,2R,3R,4R)-[1-Methyl-piperidin-2-ylmethyl 2-((6-bromopyridin-3-yl)carbamoyl)spiro[bicyclo[2.2.1]heptane-7,1′-cyclopropane]-3-carboxylate]]: the 50% effective concentration (EC50) is 217 nM.
In the case of `O=C(OCCN1CCCC1=O)[C@H]1[C@H](C(=O)Nc2ccc(Br)nc2)[C@@H]2CC[C@H]1C21CC1` [Example 23, (1S,2R,3R,4R)-[2-(2-Oxopyrrolidin-1-yl)ethyl 2-((6-bromopyridin-3-yl)carbamoyl)spiro[bicyclo[2.2.1]heptane-7,1′-cyclopropane]-3-carboxylate]], the EC50 is 281 nM.
Turning to `O=C(OC1CNC1)[C@H]1[C@H](C(=O)Nc2ccc(Br)nc2)[C@@H]2CC[C@H]1C21CC1` [Example 24, (1S,2R,3R,4R)-[Azetidin-3-yl 2-((6-bromopyridin-3-yl)carbamoyl)spiro[bicyclo[2.2.1]heptane-7,1′-cyclopropane]-3-carboxylate]hydrochloride], the EC50 is 289 nM.
As for `Cc1cc(CNC(=O)[C@H]2[C@H](C(=O)OCCCN(C)C)[C@H]3CC[C@@H]2C32CC2)no1` [Example 25, (1S,2R,3R,4R)-[1-Dimethylaminoprop-3-yl 2-(((5-methylisoxazol-3-yl)methyl)carbamoyl)spiro[bicyclo[2.2.1]heptane-7,1′-cyclopropane]-3-carboxylate]], the EC50 is 330 nM.
In the case of `Cc1cc(CNC(=O)[C@H]2[C@H](C(=O)OCC3CCCCN3C)[C@H]3CC[C@@H]2C32CC2)no1` (stereo partly drawn) [Example 26, (1S,2R,3R,4R)-[1-Methyl-piperidin-2-ylmethyl 2-(((5-methylisoxazol-3-yl)methyl)carbamoyl)spiro[bicyclo[2.2.1]heptane-7,1′-cyclopropane]-3-carboxylate]], the EC50 is 406 nM.
Take `Cc1cc(CNC(=O)[C@H]2[C@H](C(=O)OCCN(C)C)[C@H]3CC[C@@H]2C32CC2)no1` [Example 27, (1S,2R,3R,4R)-[1-Dimethylaminoeth-2-yl 2-(((5-methylisoxazol-3-yl)methyl)carbamoyl)spiro[bicyclo[2.2.1]heptane-7,1′-cyclopropane]-3-carboxylate]]: the EC50 amounted to 585 nM.
In the case of `Cc1cc(CNC(=O)[C@H]2[C@H](C(=O)OCC(C)C)[C@H]3CC[C@@H]2C32CC2)no1` [Example 28, (1S,2R,3R,4R)-[Isobutyl 2-(((5-methylisoxazol-3-yl)methyl)carbamoyl)spiro[bicyclo[2.2.1]heptane-7,1′-cyclopropane]-3-carboxylate]], the EC50 is 734 nM.
As for `Cc1cc(CNC(=O)[C@H]2[C@H](C(=O)OC3CCCC3)[C@H]3CC[C@@H]2C32CC2)no1` [Example 29, (1S,2R,3R,4R)-[Cyclopentyl 2-(((5-methylisoxazol-3-yl)methyl)carbamoyl)spiro[bicyclo[2.2.1]heptane-7,1′-cyclopropane]-3-carboxylate]], the half-maximal effective concentration (EC50) stood at 790 nM.
For the compound `CCCOC(=O)[C@H]1[C@H](C(=O)NCc2cc(C)on2)[C@@H]2CC[C@H]1C21CC1` [Example 30, (1S,2R,3R,4R)-[Propyl 2-(((5-methylisoxazol-3-yl)methyl)carbamoyl)spiro[bicyclo[2.2.1]heptane-7,1′-cyclopropane]-3-carboxylate]], the EC50 is 808 nM.
In the case of `O=C(OCCOCCN1CCCC1)[C@H]1[C@H](C(=O)Nc2ccc(Br)nc2)[C@@H]2CC[C@H]1C21CC1` [Example 31, (1S,2R,3R,4R)-[2-(2-(Pyrrolidin-1-yl)ethoxy)ethyl 2-((6-bromopyridin-3-yl)carbamoyl)spiro[bicyclo[2.2.1]heptane-7,1′-cyclopropane]-3-carboxylate]] it was 2.2 nM.
Turning to `O=C(OCCOCCN1CCCC1)[C@H]1[C@H](C(=O)NCc2ccc(Br)cc2F)[C@@H]2CC[C@H]1C21CC1` [Example 32, (1S,2R,3R,4R)-[2-(2-(Pyrrolidin-1-yl)ethoxy)ethyl 2-((4-bromo-2-fluorobenzyl)carbamoyl)spiro[bicyclo[2.2.1]heptane-7,1′-cyclopropane]-3-carboxylate]], the EC50 was 226 nM.

For the origin of these results see US9187435B2, “Bridged Spiro[2.4]heptane ester derivatives” (Actelion Pharmaceuticals Ltd., priority 2010, dated 2015).
